Measured values: a melting point compilation (Tetko et al.)

Row | SMILES | melting point
1 | O=C(O)C=Cc1ccc(Br)o1 | 125 to 135 °C
2 | CN1CCN(c2ccc(N)cn2)CC1 | 109 to 111 °C
3 | Nc1nccc(-c2cccnc2)n1 | 188 to 190 °C
4 | Cc1cc(C(=O)O)c2c(-c3ccco3)noc2n1 | 232 to 234 °C
5 | NCc1cnc(-c2ccc(C(F)(F)F)cc2)s1 | 73 to 75 °C
6 | CC(C)(C)C(O)C(=O)O (stereo unspecified) | 65 to 67 °C
7 | O=c1ccc([N+](=O)[O-])cn1CCCl | 130 to 132 °C
8 | COCCOc1ccc(NC(=O)OCC(F)(F)F)cn1 | 86 to 88 °C
9 | O=C(CCl)NCC1CCSCC1 | 83 to 85 °C
10 | COC(=O)c1cc(N)ccc1C | 38 to 40 °C
11 | CCC1(CC)NC(=O)N(CC(=O)O)C1=O | 169 to 173 °C
12 | Cn1cc(Br)cc1C(=O)O | 129 to 131 °C
13 | O=c1[nH]c(=O)c2cc(S(=O)(=O)Cl)cnc2[nH]1 | 311 to 313 °C
14 | Cc1nc(-c2ccccc2N)no1 | 77 to 79 °C
15 | Cc1ccc(NC(=O)CCl)c(Br)c1 | 169 to 171 °C
16 | O=C(O)c1sc(C2CC2)nc1C(F)(F)F | 146 to 148 °C
17 | O=C(O)c1csc(-c2cc(Br)cs2)n1 | 229 to 231 °C
18 | COC(=O)c1cc(Oc2ccc(Cl)cc2)ccc1N | 74 to 76 °C
19 | Cn1ccnc1C(=O)OCC(F)(F)F | 83 to 85 °C
20 | CC(C)(C)CNC(=O)Nc1ccc(Cl)c(C(=O)O)c1 | 208 to 210 °C
21 | NS(=O)(=O)c1cc([N+](=O)[O-])cs1 | 165 to 167 °C
22 | N#CCc1c[nH]c2cc(Cl)ccc12 | 99 to 101 °C

Row | SMILES | melting point
23 | c1cc2c(cn1)NCCCN2 | 121 to 123 °C
24 | CCCCCCCCCCCCSc1nc2ccccc2c(=O)n1-c1ccccc1 | 62 to 64 °C
25 | CN(C(=O)CCl)C1(C#N)CCCCC1 | 86 to 90 °C
26 | Cc1nn(-c2ccc(F)cc2)c2[nH]nc(N)c12 | 168 to 170 °C
27 | CC(C)Nc1ccc(Br)cc1[N+](=O)[O-] | 97 to 99 °C
28 | Cc1c(C)c(C)c(C(=O)CCl)c(C)c1C | 70 to 72 °C
29 | COCCc1nnc(S)n1N | 118 to 120 °C
30 | COC(=O)c1cnc[nH]1 | 154 to 156 °C
31 | CC1=NN(c2ccc(F)cc2)C(=O)C1 | 148 to 150 °C
32 | NS(=O)(=O)c1cccc2cnccc12 | 222 to 224 °C
33 | NS(=O)(=O)c1ccc(C(=O)O)s1 | 229 to 231 °C
34 | CC(C)C(=O)c1ccc(S(=O)(=O)Cl)cc1 | 64 to 66 °C
35 | Nc1nc(CO)n[nH]1 | 193 to 195 °C
36 | COCCNC(=O)NC(=O)CCl | 103 to 105 °C
37 | COc1cc(NC(=O)CCl)cc(OC)c1OC | 104 to 106 °C
38 | O=[N+]([O-])c1ccc(-c2c[nH]cn2)cc1 | 224 to 226 °C
39 | CN(c1ccc(OCC(=O)O)cc1)S(=O)(=O)c1cccs1 | 145 to 147 °C
40 | Cc1ccc(Cc2nnc(N)s2)cc1 | 209 to 211 °C
41 | CCOc1ccc(NC(C)=O)cc1S(N)(=O)=O | 187 to 189 °C
42 | CC1CN(c2ccc(N)cc2)CC(C)O1 (stereo unspecified) | 73 to 75 °C
43 | CCn1cc(C(F)(F)C(=O)O)cn1 | 99 to 101 °C
44 | Sc1nc(-c2cccnc2)no1 | 179 to 181 °C

Row | SMILES | melting point
45 | OCc1c[nH]c2ccc(Br)cc12 | 112 to 114 °C
46 | CCOC(=O)c1sc(SC)nc1N | 80 to 82 °C
47 | CC(C#N)CSc1ccccc1N (stereo unspecified) | 65 to 67 °C
48 | NS(=O)(=O)N1CCC(C(=O)O)CC1 | 177 to 179 °C
49 | Cc1ccsc1-c1nnc(N)[nH]1 | 189 to 191 °C
50 | Nc1ccc(OCc2ccccn2)c(F)c1 | 67 to 69 °C
51 | CC1(CCc2ccc(O)cc2)NC(=O)NC1=O (stereo unspecified) | 192 to 194 °C
52 | CCc1cccc(NC(N)=S)c1 | 85 to 87 °C
53 | Cc1nn(C)c2ncc(N)cc12 | 84 to 86 °C
54 | Nc1cnn(-c2ncccn2)c1 | 169 to 171 °C
55 | O=C1NC(=O)c2cc(Cl)c(Cl)cc21 | 217 to 219 °C
56 | Cc1cc(C)c(S(N)(=O)=O)cc1C(=O)O | 252 to 254 °C
57 | CCC(C)C(=O)NN (stereo unspecified) | 88 to 90 °C
58 | O=C(O)c1c(Cl)ccc(S(=O)(=O)Cl)c1Cl | 168 to 170 °C
59 | COc1cc(C=O)c([N+](=O)[O-])cc1OCC(F)F | 139 to 141 °C
60 | O=C1Cc2ccc(Br)cc2N1 | 216 to 220 °C
61 | O=C1CCc2c(Br)cccc21 | 95 to 99 °C
62 | Cc1cc(C)c(C(=O)O)c(N)c1 | 103 to 105 °C
63 | Ic1ccc(OCc2ccccn2)cc1 | 74 to 76 °C
64 | O=C1CC2(CCOC2)CN1 (stereo unspecified) | 63 to 65 °C
65 | Nc1ncon1 | 104 to 106 °C
66 | Nc1cccc(OCCF)c1 | 33 to 35 °C

Row | SMILES | melting point
67 | Cc1cc2cn[nH]c2cc1N | 219 to 221 °C
68 | BrCCCOc1ccc2c(c1)OCO2 | 60 to 62 °C
69 | COc1ccc(S(=O)(=O)N2CCCCC2)cc1NC(=O)CCl | 115 to 130 °C
70 | c1cc2[nH]nnc2cn1 | 240 to 242 °C
71 | Cc1c(-c2ccncc2)n[nH]c1N | 160 to 162 °C
72 | Nc1cc2c(cc1N)OCCO2 | 124 to 126 °C
73 | CC(C)(C)OC(=O)n1ccc(N)n1 | 129 to 131 °C
74 | CC(C)(C#N)NS(C)(=O)=O | 61 to 63 °C
75 | Cc1ccc(S(=O)(=O)NCCC(=O)O)cc1C | 126 to 128 °C
76 | NC(=O)NCc1cccs1 | 128 to 132 °C
77 | Cc1cc(S(N)(=O)=O)sc1Br | 149 to 151 °C
78 | O=S(=O)(Cl)c1ccc(CCCl)cc1 | 53 to 55 °C
79 | CCS(=O)(=O)NC1CCCNC1 (stereo unspecified) | 104 to 106 °C
80 | Nc1nonc1C(=O)N1CCCCC1 | 86 to 88 °C
81 | Cn1c(Cl)nc(Cl)c1C=O | 61 to 63 °C
82 | Cc1cc(N)n(C2CCN(C)CC2)n1 | 89 to 91 °C
83 | NC(=S)c1cncnc1N | 197 to 199 °C
84 | O=C1C(=O)N(Cc2ccc(Cl)cc2)c2ccccc21 | 163 to 165 °C
85 | COc1ccc(CC(=O)NN)cc1 | 132 to 134 °C
86 | CCN(CC)S(=O)(=O)c1cc(C(=O)O)ccc1OC | 182 to 184 °C
87 | Cc1cnn(-c2ccc(N)cc2F)c1 | 57 to 59 °C

The next lines start with the values.

Row | melting point | SMILES
88 | 194 to 196 °C | O=C(O)c1cc(-c2ccccc2)n(-c2ccccn2)n1
89 | 228 to 230 °C | O=C(O)c1cccc(NC(=O)C2CCCCC2)c1
90 | 104 to 106 °C | CCOC(=O)CC(=O)CN1C(=O)c2ccccc2S1(=O)=O
91 | 139 to 141 °C | O=C1NCCNC1c1ccccc1 (stereo unspecified)
92 | 104 to 106 °C | CC(=O)c1ccc2cccc3c2c1CC3
93 | 189 to 191 °C | Nc1cc(NC(=O)c2ccccc2I)ccc1Cl
94 | 50 to 52 °C | CCC(C)C(C(=O)O)c1ccccc1 (stereo unspecified)
95 | 89 to 91 °C | CC1COCCN1c1ccc(N)cc1 (stereo unspecified)
96 | 238 to 240 °C | O=C(O)c1c[nH]c2ccc(Br)cc12
97 | 103 to 105 °C | COCCOc1cn(-c2ccccc2)nc1C(=O)O
98 | 142 to 144 °C | O=C(O)Cc1ccc(S(=O)(=O)CC(F)(F)F)cc1
99 | 207 to 209 °C | O=C(O)C1CCCN(S(=O)(=O)c2ccc(Br)cc2)C1 (stereo unspecified)
100 | 214 to 216 °C | O=C(O)c1cc(S(=O)(=O)N2CCCCC2)ccc1Cl
101 | 76 to 78 °C | NCCS(=O)(=O)Cc1ccccc1
102 | 271 to 273 °C | Cc1cc(N2C(=O)c3ccccc3C2=O)ccc1C(=O)O
103 | 144 to 148 °C | O=Cc1cn(-c2ccccc2)nc1-c1ccccc1
104 | 42 to 44 °C | Nc1ccc(OCc2ccccc2)nc1
105 | 175 to 177 °C | CC(C)(C)c1ccc(C(=O)Nc2ccccc2N)cc1
106 | 102 to 104 °C | CN(C(=O)CSc1ccccc1C(=O)O)C1CCCCC1
107 | 199 to 201 °C | NCc1nc2ccccc2s1

Row | melting point | SMILES
108 | 126 to 128 °C | O=C(O)c1cccnc1S(=O)(=O)C(F)(F)F
109 | 211 to 213 °C | Cc1cccc(N2CC(C(=O)O)CC2=O)c1C (stereo unspecified)
110 | 289 to 291 °C | Cc1cc(C(=O)O)c2ccc(Br)cc2n1
111 | 109 to 111 °C | CCNC(=O)c1ccc(O)cc1
112 | 67 to 69 °C | CCC(Cc1ccccc1Br)C(=O)O (stereo unspecified)
113 | 74 to 76 °C | N#CC(c1ccccc1)(c1ccc(F)cc1)c1ccc(F)cc1
114 | 204 to 206 °C | COc1ccccc1-n1cnnc1S
115 | 146 to 148 °C | O=Cc1ccc(-c2nn(-c3ccccc3)cc2C=O)o1
116 | 158 to 160 °C | O=C(NC1CCN(Cc2ccccc2)CC1)c1ccco1
117 | 126 to 128 °C | O=C(O)CCCOc1ccc(I)cc1
118 | 254 to 260 °C | NC(=O)c1cc(S(=O)(=O)N2CCCC2)ccc1O
119 | 145 to 147 °C | CCOc1ccccc1-n1nnnc1SCC(=O)O
120 | 75 to 77 °C | O=C(O)CNS(=O)(=O)c1ccc2c(c1)OCCCO2
121 | 172 to 174 °C | NC(=O)c1cccc2c1CCCN2
122 | 206 to 208 °C | O=C(O)c1sc2cccc(F)c2c1COc1ccccc1
123 | 129 to 131 °C | CC(C)(C(=O)O)c1ccc([N+](=O)[O-])cc1
124 | 199 to 201 °C | CN(C)c1ccc(C(=O)O)c(F)c1
125 | 152 to 154 °C | CCc1cc(N)c2ccccc2n1
126 | 107 to 109 °C | O=C1NCCSC1Cc1ccccc1 (stereo unspecified)
127 | 242 to 244 °C | O=C(O)c1ccc2ncoc2c1

Row | melting point | SMILES
128 | 90 to 92 °C | O=C(CCl)Nc1cccc(CSc2ccccn2)c1
129 | 78 to 80 °C | O=C1CN(C(c2ccccc2)c2ccccc2)C1
130 | 119 to 121 °C | Nc1ccc2ccn(Cc3ccccc3)c2c1
131 | 154 to 156 °C | Cc1ccc(C(=O)N2CC(C)CC(C)C2)cc1N (stereo unspecified)
132 | 247 to 249 °C | CC1(c2ccc(Br)cc2)NC(=O)N(CC(=O)O)C1=O (stereo unspecified)
133 | 62 to 64 °C | Clc1cccc(-c2ccccn2)n1
134 | 254 to 256 °C | O=C(O)c1cnn(-c2ccc(Br)cc2)c1
135 | 261 to 263 °C | O=C(O)c1ccc(-c2nnco2)cc1
136 | 149 to 151 °C | c1ccc(C2=NCCN2)nc1
137 | 39 to 41 °C | N#CC(N)Cc1ccccc1 (stereo unspecified)
138 | 93 to 95 °C | Cc1ccccc1C(C)(C)C(=O)O
139 | 68 to 70 °C | Cc1ccc(N)c(OCc2ccccc2)c1
140 | 157 to 159 °C | O=C(O)CNS(=O)(=O)c1cc(C(F)(F)F)ccc1Cl
141 | 240 to 242 °C | NC(=O)c1ccc(C(N)=S)cc1
142 | 72 to 74 °C | CCC(Oc1cccc(C)c1)C(=O)O (stereo unspecified)
143 | 161 to 163 °C | O=C(O)C12CC3CC(C1)CC(c1ccccc1)(C3)C2
144 | 170 to 172 °C | O=C(O)COc1ccc2c3c(c(=O)oc2c1)CCC3
145 | 227 to 229 °C | CC(=O)Nc1c(Cl)cc(Br)c2ccccc12
146 | 82 to 84 °C | O=C(CCl)/N=c1\sccn1Cc1ccccc1Cl
